What was measured:
[1] = target: Fibroblast growth factor receptor 2 (Homo sapiens) (UniProt P21802); experiment: Selectivity interaction (KinomeScan (DiscoverX)) EUB0000229b FGFR2; details: at 10 µM
[2] = target: T1, Mitogen-activated protein kinase 13 (Homo sapiens) (UniProt O15264); experiment: Selectivity interaction (Upstate Kinase Profiler service (Millipore)) EUB0000056c MAPK13; details: at 1 µM
T1 sequence (whole entry): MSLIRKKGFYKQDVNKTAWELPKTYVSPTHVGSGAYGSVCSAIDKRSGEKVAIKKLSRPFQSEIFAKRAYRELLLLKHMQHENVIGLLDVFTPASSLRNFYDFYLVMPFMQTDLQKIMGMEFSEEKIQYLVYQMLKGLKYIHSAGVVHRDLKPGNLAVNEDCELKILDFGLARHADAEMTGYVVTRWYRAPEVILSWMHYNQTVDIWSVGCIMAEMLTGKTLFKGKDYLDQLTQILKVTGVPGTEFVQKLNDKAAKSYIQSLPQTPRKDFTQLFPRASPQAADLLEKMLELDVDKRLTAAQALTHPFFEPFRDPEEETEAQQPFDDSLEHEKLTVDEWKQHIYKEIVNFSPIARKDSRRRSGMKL

[3] = target: Serine/threonine-protein kinase SIK2 (Homo sapiens) (UniProt Q9H0K1); experiment: Selectivity interaction (KinomeScan (DiscoverX)) EUB0000655a SIK2; details: at 10 µM
Sequence of Serine/threonine-protein kinase SIK2 (Homo sapiens) (Q9H0K1 whole entry, looked up): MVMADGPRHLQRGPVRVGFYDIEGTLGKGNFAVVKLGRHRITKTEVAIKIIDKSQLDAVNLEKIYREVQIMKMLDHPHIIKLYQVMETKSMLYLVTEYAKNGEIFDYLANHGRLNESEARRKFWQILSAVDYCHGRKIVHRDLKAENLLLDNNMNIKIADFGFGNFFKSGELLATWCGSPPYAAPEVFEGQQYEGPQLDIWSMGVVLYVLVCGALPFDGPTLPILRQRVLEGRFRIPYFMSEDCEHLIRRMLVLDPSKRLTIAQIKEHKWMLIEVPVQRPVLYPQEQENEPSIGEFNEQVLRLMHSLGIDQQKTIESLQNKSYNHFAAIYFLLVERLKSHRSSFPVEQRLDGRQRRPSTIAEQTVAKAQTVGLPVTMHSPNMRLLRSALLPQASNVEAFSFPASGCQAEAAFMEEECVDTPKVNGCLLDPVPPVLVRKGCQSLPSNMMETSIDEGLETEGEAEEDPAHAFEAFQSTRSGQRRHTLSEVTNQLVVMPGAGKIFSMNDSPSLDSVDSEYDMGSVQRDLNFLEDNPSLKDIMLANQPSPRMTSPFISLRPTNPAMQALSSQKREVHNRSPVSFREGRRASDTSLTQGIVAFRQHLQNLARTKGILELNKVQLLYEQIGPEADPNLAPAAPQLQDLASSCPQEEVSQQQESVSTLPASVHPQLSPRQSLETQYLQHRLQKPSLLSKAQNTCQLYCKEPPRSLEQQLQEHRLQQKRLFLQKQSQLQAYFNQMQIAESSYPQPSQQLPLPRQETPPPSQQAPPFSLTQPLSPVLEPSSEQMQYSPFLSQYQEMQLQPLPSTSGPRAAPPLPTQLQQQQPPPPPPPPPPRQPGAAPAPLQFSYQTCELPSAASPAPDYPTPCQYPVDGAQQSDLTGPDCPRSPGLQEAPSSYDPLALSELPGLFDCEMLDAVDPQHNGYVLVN

[4] = target: Mitogen-activated protein kinase 10 (Homo sapiens, UniProt P53779); experiment: Selectivity interaction (KinomeScan (DiscoverX)) EUB0000655a MAPK10; details: at 10 µM
Sequence of Mitogen-activated protein kinase 10 (P53779 whole entry): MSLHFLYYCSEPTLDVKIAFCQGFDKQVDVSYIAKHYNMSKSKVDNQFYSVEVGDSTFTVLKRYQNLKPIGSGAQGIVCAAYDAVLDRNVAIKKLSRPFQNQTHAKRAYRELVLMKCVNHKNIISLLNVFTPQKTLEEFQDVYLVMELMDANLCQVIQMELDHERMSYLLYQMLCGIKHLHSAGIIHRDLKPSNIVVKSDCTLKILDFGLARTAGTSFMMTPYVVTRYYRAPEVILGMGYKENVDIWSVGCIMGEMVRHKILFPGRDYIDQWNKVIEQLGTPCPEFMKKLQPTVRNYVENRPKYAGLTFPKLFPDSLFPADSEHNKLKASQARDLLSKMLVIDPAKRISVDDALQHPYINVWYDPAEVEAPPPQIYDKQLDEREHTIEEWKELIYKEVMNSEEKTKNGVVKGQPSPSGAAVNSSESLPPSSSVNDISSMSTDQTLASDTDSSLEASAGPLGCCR

[5] = target: Activin receptor type-2B (Homo sapiens) (UniProt Q13705); experiment: Selectivity interaction (ProQinase) EUB0000171b ACVR2B
Sequence of Activin receptor type-2B (Homo sapiens) (Q13705 whole entry): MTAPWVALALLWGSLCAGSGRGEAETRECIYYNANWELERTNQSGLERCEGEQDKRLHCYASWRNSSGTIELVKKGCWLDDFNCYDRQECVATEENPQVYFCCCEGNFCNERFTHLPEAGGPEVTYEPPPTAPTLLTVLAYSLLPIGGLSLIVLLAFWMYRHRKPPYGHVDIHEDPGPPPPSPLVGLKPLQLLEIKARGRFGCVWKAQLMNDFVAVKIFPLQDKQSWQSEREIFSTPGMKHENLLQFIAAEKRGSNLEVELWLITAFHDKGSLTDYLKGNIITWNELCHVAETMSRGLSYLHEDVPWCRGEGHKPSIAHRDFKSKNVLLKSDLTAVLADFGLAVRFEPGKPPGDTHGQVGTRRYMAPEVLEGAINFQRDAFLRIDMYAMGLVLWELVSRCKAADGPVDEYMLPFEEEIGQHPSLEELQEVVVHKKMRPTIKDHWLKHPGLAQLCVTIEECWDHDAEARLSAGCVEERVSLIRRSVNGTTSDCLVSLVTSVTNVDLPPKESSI

[6] = target: Serine/threonine-protein kinase 38-like (Homo sapiens) (UniProt Q9Y2H1); experiment: Selectivity interaction (KinomeScan (DiscoverX)) EUB0001079a STK38L; details: at 1 µM
Sequence of Serine/threonine-protein kinase 38-like (Homo sapiens) (Q9Y2H1 2-464 limits assumed): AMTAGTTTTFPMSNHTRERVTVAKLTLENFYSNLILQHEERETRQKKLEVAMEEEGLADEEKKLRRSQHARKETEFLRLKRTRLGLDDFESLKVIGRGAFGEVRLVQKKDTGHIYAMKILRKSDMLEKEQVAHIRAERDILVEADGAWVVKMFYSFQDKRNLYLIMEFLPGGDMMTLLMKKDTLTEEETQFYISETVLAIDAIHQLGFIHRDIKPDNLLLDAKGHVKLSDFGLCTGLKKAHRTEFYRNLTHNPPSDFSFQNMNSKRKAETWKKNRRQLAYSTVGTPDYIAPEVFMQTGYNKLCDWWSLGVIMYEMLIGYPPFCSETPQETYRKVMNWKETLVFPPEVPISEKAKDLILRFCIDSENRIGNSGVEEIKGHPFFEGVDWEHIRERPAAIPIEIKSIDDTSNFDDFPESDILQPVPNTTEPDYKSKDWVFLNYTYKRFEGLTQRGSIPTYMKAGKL

[7] = target: High affinity nerve growth factor receptor (Homo sapiens, UniProt P04629)
Sequence of High affinity nerve growth factor receptor (P04629 whole entry): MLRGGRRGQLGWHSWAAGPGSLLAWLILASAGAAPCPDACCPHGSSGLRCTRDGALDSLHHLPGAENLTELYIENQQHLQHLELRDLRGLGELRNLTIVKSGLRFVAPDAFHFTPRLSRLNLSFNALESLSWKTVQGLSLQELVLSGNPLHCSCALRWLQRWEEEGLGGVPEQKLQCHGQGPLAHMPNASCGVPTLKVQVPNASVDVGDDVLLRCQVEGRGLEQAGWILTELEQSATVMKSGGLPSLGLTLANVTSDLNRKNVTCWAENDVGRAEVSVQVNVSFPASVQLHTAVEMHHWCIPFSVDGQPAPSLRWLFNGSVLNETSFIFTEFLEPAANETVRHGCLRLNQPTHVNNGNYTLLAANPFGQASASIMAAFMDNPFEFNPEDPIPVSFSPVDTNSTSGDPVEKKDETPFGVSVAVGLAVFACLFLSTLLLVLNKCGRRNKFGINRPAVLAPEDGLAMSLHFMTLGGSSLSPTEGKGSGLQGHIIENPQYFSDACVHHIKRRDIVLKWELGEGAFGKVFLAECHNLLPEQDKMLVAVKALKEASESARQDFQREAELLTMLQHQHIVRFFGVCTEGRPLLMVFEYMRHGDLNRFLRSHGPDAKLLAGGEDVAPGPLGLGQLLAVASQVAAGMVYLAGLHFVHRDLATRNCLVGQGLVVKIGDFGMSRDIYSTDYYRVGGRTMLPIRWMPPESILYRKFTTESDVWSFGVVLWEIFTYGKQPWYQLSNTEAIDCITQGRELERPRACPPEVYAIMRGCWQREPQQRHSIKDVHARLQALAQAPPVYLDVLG

[8] = target: Casein kinase II subunit alpha' (Homo sapiens) (UniProt P19784); experiment: Selectivity interaction (SelectScreen profiling (Invitrogen)) EUB0000607a CSNK2A2; details: at 2 µM
Sequence of Casein kinase II subunit alpha' (Homo sapiens) (P19784 whole entry, looked up): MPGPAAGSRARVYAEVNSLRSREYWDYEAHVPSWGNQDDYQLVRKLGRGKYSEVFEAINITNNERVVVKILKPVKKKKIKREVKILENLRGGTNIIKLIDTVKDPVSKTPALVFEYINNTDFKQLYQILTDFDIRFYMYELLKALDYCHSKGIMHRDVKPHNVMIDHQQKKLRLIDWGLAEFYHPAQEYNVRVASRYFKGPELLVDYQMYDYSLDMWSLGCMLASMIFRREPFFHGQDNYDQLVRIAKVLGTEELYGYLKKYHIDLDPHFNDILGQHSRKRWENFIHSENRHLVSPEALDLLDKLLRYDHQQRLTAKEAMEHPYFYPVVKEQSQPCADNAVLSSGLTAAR

[9] = target: T2, Mitogen-activated protein kinase kinase kinase 15 (Homo sapiens) (UniProt Q6ZN16); experiment: Selectivity interaction (KinomeScan (DiscoverX)) EUB0000595a MAP3K15; details: at 10 µM
T2 sequence (whole entry): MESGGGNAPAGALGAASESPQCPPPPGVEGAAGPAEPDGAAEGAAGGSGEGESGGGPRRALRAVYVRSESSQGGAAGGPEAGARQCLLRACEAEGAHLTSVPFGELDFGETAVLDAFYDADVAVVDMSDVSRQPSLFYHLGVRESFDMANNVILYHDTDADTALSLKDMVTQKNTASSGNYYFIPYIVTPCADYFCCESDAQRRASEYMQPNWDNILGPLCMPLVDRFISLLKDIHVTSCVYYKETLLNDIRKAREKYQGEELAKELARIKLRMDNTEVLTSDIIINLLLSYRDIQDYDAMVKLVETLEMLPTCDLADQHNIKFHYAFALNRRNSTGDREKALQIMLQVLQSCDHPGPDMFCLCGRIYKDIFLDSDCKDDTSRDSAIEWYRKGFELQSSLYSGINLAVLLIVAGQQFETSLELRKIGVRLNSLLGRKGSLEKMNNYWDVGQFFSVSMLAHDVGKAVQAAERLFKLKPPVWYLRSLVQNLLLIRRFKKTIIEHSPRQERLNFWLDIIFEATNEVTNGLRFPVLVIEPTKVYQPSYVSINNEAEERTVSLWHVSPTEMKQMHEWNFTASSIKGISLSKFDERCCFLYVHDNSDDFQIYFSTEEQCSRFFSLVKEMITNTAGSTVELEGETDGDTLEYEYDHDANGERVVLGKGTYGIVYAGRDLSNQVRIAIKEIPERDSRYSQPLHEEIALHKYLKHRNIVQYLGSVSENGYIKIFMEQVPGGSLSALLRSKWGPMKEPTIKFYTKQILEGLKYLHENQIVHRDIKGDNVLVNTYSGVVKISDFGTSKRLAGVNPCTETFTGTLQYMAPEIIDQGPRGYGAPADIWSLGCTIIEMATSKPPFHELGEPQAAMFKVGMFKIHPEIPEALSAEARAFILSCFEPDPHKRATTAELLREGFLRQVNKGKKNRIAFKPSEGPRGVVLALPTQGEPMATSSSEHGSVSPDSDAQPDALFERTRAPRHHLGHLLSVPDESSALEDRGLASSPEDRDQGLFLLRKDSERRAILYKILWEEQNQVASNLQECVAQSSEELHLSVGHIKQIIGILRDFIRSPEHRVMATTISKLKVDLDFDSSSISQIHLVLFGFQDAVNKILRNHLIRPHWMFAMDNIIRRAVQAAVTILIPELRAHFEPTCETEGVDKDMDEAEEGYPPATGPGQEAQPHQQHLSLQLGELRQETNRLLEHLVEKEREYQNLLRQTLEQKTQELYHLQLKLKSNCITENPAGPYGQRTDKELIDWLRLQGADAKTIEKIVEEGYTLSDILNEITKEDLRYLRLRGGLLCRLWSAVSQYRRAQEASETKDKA

[10] = target: T3, Protein kinase C iota type (Homo sapiens) (UniProt P41743); experiment: Selectivity interaction (KinomeScan (DiscoverX)) EUB0000595a PRKCI; details: at 10 µM
T3 sequence (whole entry): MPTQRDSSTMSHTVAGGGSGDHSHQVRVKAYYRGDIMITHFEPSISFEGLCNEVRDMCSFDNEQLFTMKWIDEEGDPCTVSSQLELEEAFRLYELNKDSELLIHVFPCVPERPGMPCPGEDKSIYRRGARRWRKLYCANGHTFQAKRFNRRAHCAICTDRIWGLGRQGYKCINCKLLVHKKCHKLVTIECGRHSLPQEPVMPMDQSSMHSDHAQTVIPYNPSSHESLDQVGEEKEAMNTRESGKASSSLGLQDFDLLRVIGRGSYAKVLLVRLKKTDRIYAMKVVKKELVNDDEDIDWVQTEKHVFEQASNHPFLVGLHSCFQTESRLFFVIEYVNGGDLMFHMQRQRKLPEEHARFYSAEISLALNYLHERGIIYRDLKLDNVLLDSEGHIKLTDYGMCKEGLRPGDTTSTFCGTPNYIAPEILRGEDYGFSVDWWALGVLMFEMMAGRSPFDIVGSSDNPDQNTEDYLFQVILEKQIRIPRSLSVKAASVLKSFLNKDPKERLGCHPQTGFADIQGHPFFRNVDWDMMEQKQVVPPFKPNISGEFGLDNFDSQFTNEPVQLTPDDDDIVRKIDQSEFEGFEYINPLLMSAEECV

Sequence of Fibroblast growth factor receptor 2 (Homo sapiens) (P21802 22-821 limits assumed): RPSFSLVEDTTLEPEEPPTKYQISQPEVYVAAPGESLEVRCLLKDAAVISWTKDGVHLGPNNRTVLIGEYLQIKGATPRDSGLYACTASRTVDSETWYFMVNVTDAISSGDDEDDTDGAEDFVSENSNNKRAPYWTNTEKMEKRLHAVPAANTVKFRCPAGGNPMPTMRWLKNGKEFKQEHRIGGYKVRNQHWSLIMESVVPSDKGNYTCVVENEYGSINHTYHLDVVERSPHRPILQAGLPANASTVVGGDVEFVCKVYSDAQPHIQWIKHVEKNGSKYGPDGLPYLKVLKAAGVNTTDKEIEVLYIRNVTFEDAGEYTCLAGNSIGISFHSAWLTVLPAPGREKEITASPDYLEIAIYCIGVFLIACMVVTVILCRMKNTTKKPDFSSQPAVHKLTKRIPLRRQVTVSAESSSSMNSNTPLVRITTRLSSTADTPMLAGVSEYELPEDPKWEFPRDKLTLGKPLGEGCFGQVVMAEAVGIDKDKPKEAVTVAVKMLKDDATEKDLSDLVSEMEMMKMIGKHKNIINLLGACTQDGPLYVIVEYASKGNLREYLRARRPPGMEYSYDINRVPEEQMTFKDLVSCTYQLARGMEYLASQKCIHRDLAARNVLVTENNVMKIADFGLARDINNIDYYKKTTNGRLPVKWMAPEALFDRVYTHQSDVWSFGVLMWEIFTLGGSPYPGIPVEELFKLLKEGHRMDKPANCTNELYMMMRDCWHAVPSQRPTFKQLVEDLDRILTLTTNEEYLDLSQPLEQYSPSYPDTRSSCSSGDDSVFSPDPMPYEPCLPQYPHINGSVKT

SMILES: COc1cc(N(C)c2ccnc3ccc(C(F)(F)F)cc23)cc(OC)c1OC
- % binding [1]: 100%

SMILES: Cc1ccc(-c2ccc3c(ccc4sc5c(c43)NC[C@@H](C)NC5=O)n2)cn1
- % of inhibition [2]: 6%

SMILES: CN(C)CCOc1ccc(-c2nc(-c3ccncc3)c(-c3ccc4c(c3)CC/C4=N\O)[nH]2)cc1
- % of control [3]: 91%
- % of control [4]: 8.6%

SMILES: C=CC(=O)Nc1cccc(C(=O)Nc2ccc(Nc3cc(-c4[nH]c(SC)nc4C)ccn3)cc2)c1
- % of control ([5]; at 1 µM): 88%
- % of control ([5]; at 5 µM): 68%

SMILES: Nc1cnc(N2CCc3cc(S(=O)(=O)Nc4c(F)cc(Cl)cc4F)cc(N4CCCC4=O)c32)nc1 [TP-020n]
- % of control [6]: 42%

SMILES: CCc1cccc(CC)c1NC(=O)c1nn(C)c2c1CCc1cnc(Nc3ccc(C(=O)NC4CCN(C)CC4)cc3OC(F)(F)F)nc1-2
- IC50 [7]: > 10 µM

SMILES: CNC(=O)Nc1ccc(-c2nc(N3CC4CCC(C3)O4)c3cnn(C4CCC5(CC4)OCCO5)c3n2)cc1
- % of inhibition [8]: 3%

SMILES: COCC(=O)NC/C=C/c1ccc2ncnc(Nc3ccc(Oc4ccc(C)nc4)c(C)c3)c2c1 [CP-724714]
- % of control [9]: 100%
- % of control [10]: 93%
